# Experimental data taken from ChEMBL document CHEMBL6153094, “Rationally designed highly amphipathic antimicrobial peptides demonstrating superior bacterial selectivity relative to the corresponding α-helix peptide” (Eur J Med Chem, 2025).
# Where a SMILES comes first, the peptide text is derived from it. Bridges are numbered along the chain shown (N, C = ends). [ ]: non-standard residue; d: D form. The star is where a group is joined. X1 = CC[C@H](C)CCCCC(=O)*; Dab = NCC[C@H](N)C(=O)O
# Columns and labels:
# [1] = Acute toxicity in male Balb/c mouse assessed as animal death at 30 mg/kg, ip measured within 30 mins; format: organism-based; conditions: in vivo, 0.5 h
# [2] = Toxicity in male Balb/c mouse assessed as inflammatory cell infiltration in lungs at 22.48 mg/kg, ip administered for 7 days by H and E staining based analysis; format: organism-based; conditions: in vivo, 168 h, time 7 day
# [3] = Toxicity in male Balb/c mouse assessed as edema in liver at 22.48 mg/kg, ip administered for 7 days by H and E staining based analysis; format: organism-based; conditions: in vivo, 168 h, time 7 day
# [4] = Toxicity in male Balb/c mouse assessed as balloon-like degeneration in liver at 22.48 mg/kg, ip administered for 7 days by H and E staining based analysis; format: organism-based; conditions: in vivo, 168 h, time 7 day
# [5] = Toxicity in male Balb/c mouse assessed as alveolar septum thickening at 22.48 mg/kg, ip administered for 7 days by H and E staining based analysis; format: organism-based; conditions: in vivo, 168 h, time 7 day
# [6] = Toxicity in male Balb/c mouse assessed as lethal dose administered intraperitoneally for 7 days; conditions: in vivo, route ip, time 7 day
# [7] = Toxicity in male Balb/c mouse assessed as lung bubble contraction at 22.48 mg/kg, ip administered for 7 days by H and E staining based analysis; format: organism-based; conditions: in vivo, 168 h, time 7 day
# [8] = Toxicity in male Balb/c mouse assessed as hemorrhage in liver at 22.48 mg/kg, ip administered for 7 days by H and E staining based analysis; format: organism-based; conditions: in vivo, 168 h, time 7 day
# Staphylococcus aureus [9] = experiment: Antibacterial activity against Staphylococcus aureus ATCC 25923 assessed as fold change in MIC incubated for 18 hrs in presence of FeCl3 by Mueller-Hinton broth based assay; format: functional
# Staphylococcus aureus [10] = experiment: Antibacterial activity against Staphylococcus aureus ATCC 25923 assessed as fold change in MIC incubated for 18 hrs in presence of ZnCl2 by Mueller-Hinton broth based assay; format: functional
# Pseudomonas aeruginosa [11] = experiment: Resistance fold, ratio of MIC for Pseudomonas aeruginosa ATCC 27853 measured after 20 passages to MIC for Pseudomonas aeruginosa ATCC 27853 measured immediately; format: functional
# Staphylococcus aureus [12] = experiment: Antibiofilm activity in Staphylococcus aureus ATCC 25923 assessed as inhibition of biofilm formation at 1/2 times of MIC incubated for 24 hrs by crystal violet staining based analysis relative to control; format: functional
# Klebsiella pneumoniae = experiment: Antimicrobial activity against Klebsiella pneumoniae ATCC 700603 assessed as inhibition of visible bacterial growth incubated for 18 hrs by broth microdilution method; format: functional
# Pseudomonas aeruginosa [13] = experiment: Antibacterial activity against Pseudomonas aeruginosa ATCC 27853 assessed as fold change in MIC incubated for 18 hrs in presence of ZnCl2 by Mueller-Hinton broth based assay; format: functional
# Pseudomonas aeruginosa [14] = experiment: Antibacterial activity against Pseudomonas aeruginosa ATCC 27853 assessed as fold change in MIC incubated for 18 hrs in presence of FeCl3 by Mueller-Hinton broth based assay; format: functional
# Escherichia coli = experiment: Antimicrobial activity against Escherichia coli ATCC 25922 assessed as inhibition of visible bacterial growth incubated for 18 hrs by broth microdilution method; format: functional
# Staphylococcus aureus [15] = experiment: Antibacterial activity against Staphylococcus aureus ATCC 25923 assessed as fold change in MIC incubated for 18 hrs in presence of NaCl by Mueller-Hinton broth based assay; format: functional
# Pseudomonas aeruginosa [16] = experiment: Resistance fold, ratio of MIC for Pseudomonas aeruginosa ATCC 27853 measured after 20 passages in presence of gentamicin to MIC for Pseudomonas aeruginosa ATCC 27853 measured immediately in presence of gentamicin; format: functional
# Enterococcus faecalis = experiment: Antimicrobial activity against Enterococcus faecalis ATCC 29212 assessed as inhibition of visible bacterial growth incubated for 18 hrs by broth-dilution method; format: functional
# Staphylococcus aureus [17] = experiment: Antibiofilm activity in Staphylococcus aureus ATCC 25923 assessed as inhibition of biofilm formation at 1 times of MIC incubated for 24 hrs by crystal violet staining based analysis relative to control; format: functional
# Staphylococcus aureus [18] = experiment: Resistance fold, ratio of MIC for Staphylococcus aureus ATCC 25923 measured after 20 passages to MIC for Staphylococcus aureus ATCC 25923 measured immediately; format: functional
# Pseudomonas aeruginosa [19] = experiment: Antibacterial activity against Pseudomonas aeruginosa ATCC 27853 assessed as fold change in MIC incubated for 18 hrs in presence of KCl by Mueller-Hinton broth based assay; format: functional
# Staphylococcus aureus [20] = experiment: Resistance fold, ratio of MIC for Staphylococcus aureus ATCC 25923 measured after 20 passages in presence of gentamicin to MIC for Staphylococcus aureus ATCC 25923 measured immediately in presence of gentamicin; format: functional
# Staphylococcus aureus [21] = experiment: Antibacterial activity against Staphylococcus aureus ATCC 25923 assessed as fold change in MIC incubated for 18 hrs in presence of KCl by Mueller-Hinton broth based assay; format: functional
# Acinetobacter baumannii = experiment: Antimicrobial activity against Acinetobacter baumannii ATCC 19606 assessed as inhibition of visible bacterial growth incubated for 18 hrs by broth microdilution method; format: functional
# Staphylococcus aureus [22] = experiment: Antimicrobial activity against Staphylococcus aureus ATCC 25923 assessed as inhibition of visible bacterial growth incubated for 18 hrs by broth-dilution method; format: functional
# Pseudomonas aeruginosa [23] = experiment: Antibiofilm activity in Pseudomonas aeruginosa ATCC 27853 assessed as inhibition of biofilm formation at 1 times of MIC incubated for 24 hrs by crystal violet staining based analysis relative to control; format: functional
# Staphylococcus aureus [24] = experiment: Antibacterial activity against Staphylococcus aureus ATCC 25923 assessed as fold change in MIC incubated for 18 hrs in presence of MgCl2 by Mueller-Hinton broth based assay; format: functional
# Pseudomonas aeruginosa [25] = experiment: Antimicrobial activity against Pseudomonas aeruginosa ATCC 27853 assessed as inhibition of visible bacterial growth incubated for 18 hrs by broth microdilution method; format: functional
# Staphylococcus aureus [26] = experiment: Antibiofilm activity in Staphylococcus aureus ATCC 25923 assessed as inhibition of biofilm formation at 2 times of MIC incubated for 24 hrs by crystal violet staining based analysis relative to control; format: functional
# Pseudomonas aeruginosa [27] = experiment: Additive antimicrobial activity against gentamicin-resistant Pseudomonas aeruginosa ATCC 27853 assessed as fractional inhibitory concentration index incubated for 18 hrs in presence of gentamicin by checkerboard microdilution method; format: functional
# Pseudomonas aeruginosa [28] = experiment: Antibacterial activity against Pseudomonas aeruginosa ATCC 27853 assessed as fold change in MIC incubated for 18 hrs in presence of MgCl2 by Mueller-Hinton broth based assay; format: functional
# Bacillus subtilis = experiment: Antimicrobial activity against Bacillus subtilis ATCC 23857 assessed as inhibition of visible bacterial growth incubated for 18 hrs by broth microdilution method; format: functional
# [29] = system: Staphylococcus epidermidis; experiment: Antimicrobial activity against Staphylococcus epidermidis ATCC 12228 assessed as inhibition of visible bacterial growth incubated for 18 hrs by broth-dilution method; format: functional
# Staphylococcus aureus [30] = experiment: Synergistic antimicrobial activity against gentamicin-resistant Staphylococcus aureus ATCC 25923 assessed as fractional inhibitory concentration index incubated for 18 hrs in presence of gentamicin by checkerboard microdilution method; format: functional
# Staphylococcus aureus [31] = experiment: Antibiofilm activity in Staphylococcus aureus ATCC 25923 assessed as inhibition of biofilm formation at 4 times of MIC incubated for 24 hrs by crystal violet staining based analysis relative to control; format: functional
# Pseudomonas aeruginosa [32] = experiment: Antibacterial activity against Pseudomonas aeruginosa ATCC 27853 assessed as fold change in MIC incubated for 18 hrs in presence of NaCl by Mueller-Hinton broth based assay; format: functional
# Staphylococcus aureus [33] = experiment: Antimicrobial activity against methicillin-drug resistant Staphylococcus aureus ATCC 33591 assessed as concentration required to eliminate 90% bacteria incubated for 18 hrs by broth-microdilution method; format: functional
structure (smiles),measurement,setting,value
CC(C)CCCCC(=O)N[C@@H](CCN)C(=O)N[C@H](C(=O)N[C@@H](CCN)C(=O)N[C@H]1CCNC(=O)[C@H]([C@@H](C)O)NC(=O)[C@H](CCN)NC(=O)[C@H](CCN)NC(=O)[C@H](CC(C)C)NC(=O)[C@@H](Cc2ccccc2)NC(=O)[C@H](CCN)NC1=O)[C@@H](C)O.CC[C@H](C)CCCCC(=O)N[C@@H](CCN)C(=O)N[C@H](C(=O)N[C@@H](CCN)C(=O)N[C@H]1CCNC(=O)[C@H]([C@@H](C)O)NC(=O)[C@H](CCN)NC(=O)[C@H](CCN)NC(=O)[C@H](CC(C)C)NC(=O)[C@@H](Cc2ccccc2)NC(=O)[C@H](CCN)NC1=O)[C@@H](C)O (X1-[Dab]T[Dab][Dab][Dab][dF]L[Dab][Dab]T; lactam 4-C) [listing 1 of 2 here],Activity,[1],Toxic
same,Activity,[2],Toxic
same,Activity,[3],Toxic
same,Activity,[4],Toxic
same,Activity,[5],Toxic
same,LD50 at 168 h,[6],22.5 mg/kg
same,Activity,[7],Toxic
same,Activity,[8],Toxic
CC(C)CCCCC(=O)N[C@@H](CCN)C(=O)N[C@H](C(=O)N[C@@H](CCN)C(=O)N[C@H]1CCNC(=O)[C@H]([C@@H](C)O)NC(=O)[C@H](CCN)NC(=O)[C@H](CCN)NC(=O)[C@H](CC(C)C)NC(=O)[C@@H](Cc2ccccc2)NC(=O)[C@H](CCN)NC1=O)[C@@H](C)O.CC[C@H](C)CCCCC(=O)N[C@@H](CCN)C(=O)N[C@H](C(=O)N[C@@H](CCN)C(=O)N[C@H]1CCNC(=O)[C@H]([C@@H](C)O)NC(=O)[C@H](CCN)NC(=O)[C@H](CCN)NC(=O)[C@H](CC(C)C)NC(=O)[C@@H](Cc2ccccc2)NC(=O)[C@H](CCN)NC1=O)[C@@H](C)O (X1-[Dab]T[Dab][Dab][Dab][dF]L[Dab][Dab]T; lactam 4-C) [listing 2 of 2 here],fold change (FC),Staphylococcus aureus [9],<=2
same,fold change (FC),Staphylococcus aureus [10],<=2
same,fold change (FC),Pseudomonas aeruginosa [11],8
same,inhibition (INH),Staphylococcus aureus [12],55%
same,MIC,Klebsiella pneumoniae,< 1 µM
same,fold change (FC),Pseudomonas aeruginosa [13],<=2
same,fold change (FC),Pseudomonas aeruginosa [14],<=2
same,MIC,Escherichia coli,< 1 µM
same,fold change (FC),Staphylococcus aureus [15],8
same,fold change (FC),Pseudomonas aeruginosa [16],8
same,MIC,Enterococcus faecalis,128 µM
same,inhibition (INH),Staphylococcus aureus [17],75%
same,fold change (FC),Staphylococcus aureus [18],4
same,fold change (FC),Pseudomonas aeruginosa [19],<=2
same,fold change (FC),Staphylococcus aureus [20],8
same,fold change (FC),Staphylococcus aureus [21],<=2
same,MIC,Acinetobacter baumannii,< 1 µM
same,MIC,Staphylococcus aureus [22],16 µM
same,inhibition (INH),Pseudomonas aeruginosa [23],>90%
same,fold change (FC),Staphylococcus aureus [24],<=2
same,MIC,Pseudomonas aeruginosa [25],< 1 µM
same,inhibition (INH),Staphylococcus aureus [26],~80%
same,fractional inhibitory concentration index (FICI),Pseudomonas aeruginosa [27],0.563
same,fold change (FC),Pseudomonas aeruginosa [28],<=2
same,MIC,Bacillus subtilis,8 µM
same,MIC,[29],8 µM
same,fractional inhibitory concentration index (FICI),Staphylococcus aureus [30],0.375
same,inhibition (INH),Staphylococcus aureus [31],~80%
same,fold change (FC),Pseudomonas aeruginosa [32],2
same,EC90,Staphylococcus aureus [33],11.1 µM
